Experimental data published in patent publication US6924251B1, “Substituted benzoylcyclohexandiones” (Bayer Aktiengesellschaft, priority 1998, dated 2005).

Assays:
[1] = logP determination by HPLC (reversed-phase C18), EEC Directive 79/831 Annex V.A8; conditions: for logP: Table 3, compounds of formula (IV); labelled a): acidic range, 0.1% aqueous phosphoric acid, acetonitrile, linear gradient 10% to 90% acetonitrile, 43° C.

## Cn1c(C(F)(F)F)nn(Cc2c(Cl)ccc(C(=O)O)c2Cl)c1=O [III-3, 4-methyl-5-trifluoromethyl-2-(2,6-dichloro-3-carboxy-benzyl)-2,4-dihydro-3H-1,2,4-triazol-3-one]
other
  melting point: 207 °C

## COC(=O)c1ccc(Cl)c(Cn2nc(C(F)(F)F)n(C)c2=O)c1Cl [IV-2, 4-methyl-5-trifluoromethyl-2-(2,6-dichloro-3-methoxycarbonyl-benzyl)-2,4-dihydro-3H-1.2.4-triazol-3-one]
other
  melting point: 109 °C

## COC(=O)c1ccc(Cl)c(Cn2nc(SC)n(C)c2=O)c1Cl [IV-3]
[1]
  logP: m.p.: 229 °C logP = 2.27^a)

## CCOc1nn(Cc2c(Cl)ccc(C(=O)OC)c2Cl)c(=O)n1C [IV-4]
[1]
  logP: m.p.: 120 °C logP = 2.38^a)

## COC(=O)c1ccc(Cl)c(Cn2nc(C3CC3)n(C3CC3)c2=O)c1Cl [IV-5]
[1]
  logP: m.p.: 127 °C logP = 2.55^a)

## COC(=O)c1ccc(Cl)c(Cn2nc(OC)n(C)c2=O)c1Cl [IV-6]
[1]
  logP: m.p.: 121 °C logP = 2.04^a)

## COC(=O)c1ccc(Cl)c(Cn2nc(OC(C)C)n(C)c2=O)c1Cl [IV-7]
[1]
  logP: m.p.: 68 °C logP = 2.73^a)

## COC(=O)c1ccc(Cl)c(Cn2nc(OCC(F)(F)F)n(C)c2=O)c1Cl [IV-8]
[1]
  logP: m.p.: 129 °C logP = 2.72^a)

## COC(=O)c1ccc(Cl)c(Cn2nc(Br)n(C)c2=O)c1Cl [IV-9]
[1]
  logP: m.p.: 164 °C logP = 2.18^a)

## COC(=O)c1ccc(Cl)c(Cn2ncn(C)c2=O)c1Cl [IV-10]
[1]
  logP: m.p.: 158 °C logP = 1.55^a)

## COC(=O)c1ccc(Cl)c(Cn2nc(C3CC3)n(C)c2=O)c1Cl [IV-11]
[1]
  logP: m.p.: 106 °C logP = 2.16^a)

## COC(=O)c1ccc(Cl)c(Cn2nc(N(C)C)n(C)c2=O)c1Cl [IV-12]
[1]
  logP: m.p.: 126 °C logP = 2.11^a)

## COC(=O)c1ccc(Cl)c(Cn2nc(C)n(C)c2=O)c1Cl [IV-13]
[1]
  logP: m.p.: 146 °C logP = 1.65^a)

## COC(=O)c1ccc(Cl)c(Cn2nc3n(c2=O)CCCC3)c1Cl [IV-14]
[1]
  logP: m.p.: 178 °C logP = 1.86^a)

## COC(=O)c1ccc(Cl)c(Cn2nc(OC)n(C3CC3)c2=O)c1Cl [IV-15]
[1]
  logP: m.p.: 97 °C logP = 2.36^a)

## CCOc1nn(Cc2c(Cl)ccc(C(=O)OC)c2Cl)c(=O)n1C1CC1 [IV-16]
[1]
  logP: m.p.: 99 °C logP = 2.73^a)

## COC(=O)c1ccc(Cl)c(Cn2nc(OC(C)C)n(C3CC3)c2=O)c1Cl [IV-17]
[1]
  logP: m.p.: 56 °C logP = 3.08^a)

## COC(=O)c1ccc(Cl)c(Cn2nc(OCC(F)(F)F)n(C3CC3)c2=O)c1Cl [IV-18]
[1]
  logP: m.p.: 102 °C logP = 3.05^a)

## COC(=O)c1ccc(Cl)c(Cn2nc(SC)n(C3CC3)c2=O)c1Cl [IV-19]
[1]
  logP: m.p.: 131 °C logP = 2.70^a)

## COC(=O)c1ccc(Cl)c(Cn2nc(C)n(C3CC3)c2=O)c1Cl [IV-20]
[1]
  logP: m.p.: 135 °C logP = 1.97^a)

## COC(=O)c1ccc(Cl)c(Cn2nc(N(C)C)n(C3CC3)c2=O)c1Cl [IV-21]
[1]
  logP: m.p.: 143 °C logP = 2.42^a)

## CCOn1c(CC)nn(Cc2c(Cl)ccc(C(=O)OC)c2Cl)c1=O [IV-22]
[1]
  logP: m.p.: 85 °C logP = 2.58^a)

## COC(=O)c1ccc(Cl)c(CN2CCN(C)C2=O)c1Cl [IV-23]
[1]
  logP: logP = 1.98^a)

## COC(=O)c1ccc(Cl)c(CN2CCCN(C)C2=O)c1Cl [IV-24]
[1]
  logP: logP = 2.07^a)

## COC(=O)c1ccc(Cl)c(CN2C(=O)c3ccccc3S2(=O)=O)c1Cl [IV-25]
[1]
  logP: m.p.: 157 °C logP = 2.94^a)

## CCOC(=O)c1ccc(S(C)(=O)=O)cc1CN1C(=O)CCC1=O [IV-33]
[1]
  logP: logP = 1.53^a)

## CCOC(=O)c1ccc(Br)cc1Cn1nc(CC)n(OCC)c1=O [IV-34]
[1]
  logP: logP = 3.24^a)

## CCOC(=O)c1ccc(Br)cc1Cn1nc(C(F)(F)F)n(C)c1=O [IV-35]
[1]
  logP: logP = 3.40^a)

## CCOC(=O)c1ccc(F)cc1Cn1nc(SC)n(C)c1=O [IV-37]
[1]
  logP: logP = 2.45^a)

## CCOC(=O)c1ccc(Cl)cc1Cn1nc(OCC)n(C2CC2)c1=O [IV-42]
[1]
  logP: logP = 3.23^a)

## CCOC(=O)c1ccc(Cl)cc1Cn1nc(C(F)(F)F)n(C)c1=O [IV-43]
[1]
  logP: logP = 3.31^a)

## CCOC(=O)c1ccc(Cl)cc1Cn1nc(CC)n(OCC)c1=O [IV-44]
[1]
  logP: logP = 3.14^a)

## CCOC(=O)c1ccc([N+](=O)[O-])cc1Cn1nc(OCC)n(C2CC2)c1=O [IV-45]
[1]
  logP: logP = 2.42^a)

## CCOC(=O)c1ccc([N+](=O)[O-])cc1Cn1nc(SC)n(C)c1=O [IV-46]
[1]
  logP: logP = 2.82^a)

## CCOC(=O)c1ccc(C(F)(F)F)cc1Cn1nc(OCC)n(C2CC2)c1=O [IV-47]
[1]
  logP: logP = 3.48^a)

## CCOC(=O)c1ccc(C(F)(F)F)cc1Cn1nc(CC)n(OCC)c1=O [IV-48]
[1]
  logP: logP = 3.38^a)

## CCOC(=O)c1ccc(C(F)(F)F)cc1Cn1nc(SC)n(C)c1=O [IV-49]
[1]
  logP: logP = 3.02^a)

## CCCOC(=O)c1ccc(C(F)(F)F)cc1Cn1nc(OCC)n(C2CC2)c1=O [IV-50]
[1]
  logP: logP = 3.91^a)

## CCOC(=O)c1ccc(Br)cc1Cn1nc(OCC)n(C)c1=O [IV-58]
[1]
  logP: logP = 2.95^a)

## CCOC(=O)c1ccc(Br)cc1CN1C(=O)CCC1=O [IV-60]
[1]
  logP: logP = 2.44^a)

## CCOC(=O)c1ccc(Br)cc1Cn1nc(OC(C)C)n(C)c1=O [IV-65]
[1]
  logP: logP = 3.34^a)

## CCCOc1nn(Cc2cc(Br)ccc2C(=O)OCC)c(=O)n1C [IV-66]
[1]
  logP: logP = 3.38^a)

## CCOC(=O)c1ccc(Br)cc1Cn1nc(OCC(F)(F)F)n(C)c1=O [IV-67]
[1]
  logP: logP = 3.31^a)

## CCOC(=O)c1ccc(Br)cc1Cn1nc2n(c1=O)CCC2 [IV-68]
[1]
  logP: logP = 2.16^a)

## CCOC(=O)c1ccc(Br)cc1Cn1nc2n(c1=O)CCCC2 [IV-69]
[1]
  logP: logP = 2.41^a)

## CCOC(=O)c1ccc(C(F)(F)F)cc1Cn1nc(OC(C)C)n(C)c1=O [IV-70]
[1]
  logP: logP = 3.51^a)

## CCCOc1nn(Cc2cc(C(F)(F)F)ccc2C(=O)OCC)c(=O)n1C [IV-71]
[1]
  logP: logP = 3.54^a)

## CCOC(=O)c1ccc(Br)cc1CN1CCOC1=O [IV-72]
[1]
  logP: logP = 2.36^a)

## CCOC(=O)c1ccc(Br)cc1Cn1nc(C)oc1=O [IV-73]
[1]
  logP: logP = 2.88^a)

## CCOC(=O)c1ccc(C(F)(F)F)cc1Cn1cnn(C)c1=O [IV-74]
[1]
  logP: logP = 2.68^a)

## CCOC(=O)c1ccc(Br)cc1Cn1nc(Br)n(C)c1=O [IV-75]
[1]
  logP: logP = 2.80^a)

## CCOC(=O)c1ccc(C(F)(F)F)cc1Cn1nc(COC)n(C2CC2)c1=O [IV-77]
[1]
  logP: logP = 2.88^a)

## CCOC(=O)c1ccc(C(F)(F)F)cc1Cn1nc(COC)n(C)c1=O [IV-78]
[1]
  logP: logP = 2.60^a)

## CCOC(=O)c1ccc(C(F)(F)F)cc1Cn1nc(Br)n(C2CC2)c1=O [IV-79]
[1]
  logP: logP = 3.35^a)

## CCOC(=O)c1ccc(Br)cc1Cn1nc(SC)n(C)c1=O [IV-80]
[1]
  logP: logP = 2.86^a)

## CCOC(=O)c1ccc(Cl)cc1Cn1nc(SC)n(C)c1=O [IV-81]
[1]
  logP: logP = 2.83^a)

## CCOC(=O)c1ccc(Br)cc1Cn1nc(N(C)C)n(C)c1=O [IV-82]
[1]
  logP: logP = 2.60^a)

## CCOC(=O)c1ccc(C(F)(F)F)cc1Cn1nc(N(C)C)n(C)c1=O [IV-85]
[1]
  logP: logP = 2.79^a)

## CCOC(=O)c1ccc(C(F)(F)F)cc1CN1C(=O)c2ccccc2S1(=O)=O [IV-86]
[1]
  logP: logP = 3.67^a)

## CCOC(=O)c1ccc(C(F)(F)F)cc1CN1C(=O)c2ccccc2C1=O [IV-87]
[1]
  logP: logP = 3.80^a)

## CCOC(=O)c1ccc(S(C)(=O)=O)cc1Cn1nc(SC)n(C)c1=O [IV-89]
[1]
  logP: logP = 1.82^a)

## CCOC(=O)c1ccc(C(F)(F)F)cc1Cn1cc(C(F)(F)F)c(=O)[nH]c1=O [IV-90]
[1]
  logP: logP = 2.93^a)

## CCOC(=O)c1ccc(C(F)(F)F)cc1Cn1nc(C)oc1=O [IV-92]
[1]
  logP: logP = 3.04^a)

## CCOC(=O)c1ccc(C(F)(F)F)cc1Cn1nc(OCC(F)(F)F)n(C)c1=O [IV-93]
[1]
  logP: logP = 3.45^a)

## CCOC(=O)c1ccc(F)cc1Cn1nc(N(C)C)n(C)c1=O [IV-94]
[1]
  logP: logP = 2.21^a)

## CCCOc1nn(Cc2cc(F)ccc2C(=O)OCC)c(=O)n1C [IV-95]
[1]
  logP: logP = 2.96^a)

## CCOC(=O)c1ccc(F)cc1Cn1nc(COC)n(C)c1=O [IV-96]
[1]
  logP: logP = 2.05^a)

## CCOC(=O)c1ccc(F)cc1Cn1nc(OC)n(C2CC2)c1=O [IV-97]
[1]
  logP: logP = 2.50^a)

## CCOC(=O)c1ccc(F)cc1Cn1nc(OCC)n(C2CC2)c1=O [IV-98]
[1]
  logP: logP = 2.89^a)

## CCOC(=O)c1ccc(C(F)(F)F)cc1CN1N=C(C)C(C)(C)C1=O [IV-99]
[1]
  logP: logP = 2.91^a)

## CCOC(=O)c1ccc(C(F)(F)F)cc1Cn1c(=O)n(C)c(=O)n1C [IV-113]
[1]
  logP: logP = 2.58^a)

## COC(=O)c1ccc(S(C)(=O)=O)cc1Cn1nc(SC)n(C)c1=O [IV-114]
[1]
  logP: logP = 1.53^a)

## CCOc1nn(Cc2cc(S(C)(=O)=O)ccc2C(=O)OC)c(=O)n1C [IV-115]
[1]
  logP: logP = 1.59^a)

## CCOc1nn(Cc2cc(I)ccc2C(=O)OC)c(=O)n1C [IV-116]
[1]
  logP: logP = 2.68^a)

## CCOc1nn(Cc2cc(C(F)(F)F)ccc2C(=O)OC)c(=O)n1C [IV-117]
[1]
  logP: logP = 2.74^a)

## COC(=O)c1ccc(C(F)(F)F)cc1Cn1nc(SC)n(C)c1=O [IV-118]
[1]
  logP: logP = 2.65^a)

## CCOC(=O)c1ccc(C(F)(F)F)cc1Cn1nc(Br)n(C)c1=O [IV-119]
[1]
  logP: logP = 2.96^a)

## Cn1c(C(F)(F)F)nn(-c2ccc(C(=O)C3C(=O)CCCC3=O)c(Cl)c2)c1=O [compound 2, 2-[4-(2,6-dioxocyclohexylcarbonyl)-3-chloro-phenyl]4-methyl-5-trifluoromethyl-2,4-dihydro-3H-1,2,4-triazol-3′-one]
other
  melting point: 182 °C
[1]; reversed-phase C18 HPLC column, pH 2
  chromatographic logP: 3.13
